According to US6225306A, “Biphenyl derivatives and drug composition” (Wakamoto Pharmaceutical Co., Ltd., priority 1997, dated 2001):

What was measured:
Normal Conscious Rat [1] = experiment: Aquaretic Effects in Normal Conscious Rat (urine volume); format: in vivo, rat (Sprague-Dawley, male)
Description: Aquaretic Effects in Normal Conscious Rat
(§1) Studies were performed with Sprague-Dawley male SPF rats (body weight: 240 to 320 g; 8-week-old). In this experiment, each group consisted of not less than 4 animals and rats were fasted over 16 to 20 hours. The animals were acclimatized in metabolic cages for one hour, then each compound to be tested was dissolved in 100% N,N-dimethylformamide or suspended in 5% gum arabic solution and administered to these animals intravenously (iv.) in a dose of 3 mg/kg or orally (p.o.) in a dose of 30 mg/kg. Immediately after the test compound or vehicle were orally administered, saline (25 ml/kg) was given orally. Spontaneous voided urines were collected for 4 hours after the administration of the compound and the amount of the urine were determined. In this case, the control group consisted of animals to which only 5% gum arabic was orally administered.
In addition, known compounds of Comparative Examples 2 and Comparative Examples 3 and 4 represented by the following formulas were used as control compounds.

male ICR mice = experiment: Acute Toxicity Test; format: in vivo; details: oral, 7 days observation
Description: To groups of male ICR mice (6-week-old) each consisting of 5 animals, there were orally administered the compounds of Examples 13, 18, 25 and 30 and Comparative Examples 2 and 5 suspended in 5% gum arabic solution at doses of 150, 500 and 1500 mg/kg, followed by observation of the general symptoms of these animals during 7 days after the administration to thus evaluate the number of death. In this respect, mice were given feed and water ad libitum throughout this test except for the term extending from 16 to 20 hours before the administration and 4 hours after the administration.

Vasopressin V1 Receptor = Vasopressin V1 Receptor (Rattus norvegicus, UniProt P30560); experiment: biochemical; format: binding, rat (Sprague-Dawley, female; liver crude membrane)
Description: The livers excised from Sprague-Dawley female rats were cut into small pieces, and were homogenized in 50 mM Tris-HCl, pH 7.4 hereunder referred to as "buffer"). The homogenate was centrifuged at 50000×g, at 4° C. for 20 minutes. The pellet was added the buffer in an amount of 10 times the volume of the pellet, the mixture was recentrifuged by the same method as described above to wash the residue. The buffer was further added to the resulting pellet so that the protein content thereof was adjusted to 10 mg/ml to thus give a crude membrane fraction of rat liver. The crude membrane fraction of rat liver was used in the following test. More specifically, 5000 μg of the crude liver membrane was incubated with [^3 H]-Arg-vasopressin V-1 antagonist ([^3 H) vasopressin V1 antagonist: 2 nM) and various concentration (3×10^-12 to 10^-6) of the test compounds in a 1000 μL of buffer containing 10 mM magnesium chloride, 10 mM potassium chloride and 0.1% bovine serum albumin at 25° C. for 60 minutes. Thereafter the incubation mixture was rapidly filtered by vacuum using a cell harvester. The filters were washed with buffer to remove free ligands and excess buffer, and to thus trap labeled ligand linked with the receptor on the filter paper. The filter paper was sufficiently dried and mixed with a liquid scintillator, and the amount of the [^3 H] vasopressin V1 antagonist bonded to the membrane was determined using a liquid scintillation counter. The inhibition rate at each concentration was calculated according to the following equation:
Inhibition Rate (%)=100-[(B-N)/(B0 -N)]×100
Wherein B represents the amount of the [^3 H] vasopressin V1 antagonist bonded to the membrane in the presence of known amounts of the compound to be tested and the [^3 CH] vasopressin V1 antagonist;
B0 represents the amount of the [^3 H] vasopressin V1 antagonist bonded to the membrane in the absence of the compound to be tested;
N represents the amount of the [^3 H] vasopressin V1 antagonist bonded to the membrane in the presence of an excess of vasopressin (10^-6 M).
The IC50 value (the concentration required to cause 50% inhibition of the specific binding of [^3 H]-V1 antagonist) was determined. […] On the other hand, for the compounds which were investigated only one concentration (10^-7 M), the inhibition rate at that concentration was defined to be the binding rate.

Vasopressin V2 Receptor = Vasopressin V2 Receptor (Rattus norvegicus, UniProt Q00788); experiment: biochemical; format: binding, rat (Sprague-Dawley, female; kidney crude membrane)
Normal Conscious Rat [2] = experiment: Urinary electrolytes and urinary osmotic pressure in conscious rat; format: in vivo, rat (Sprague-Dawley, male); details: 0-2 hours, relation to urine volume
Description: as §1
Separately, the cumulative urine in each animal was collected for 2 hours after the administration of the compound, and analyze the amounts of sodium and potassium as electrolytes present in the urine (ion-selective electrode method), the amount of chlorine (coulometric titration) and urinary osmotic pressure (cryoscopic method). The results thus observed for typical compounds of the present invention are plotted on the accompanying drawings (FIGS. 1, 2, 3 and 4). […]. In this test, each compound tested was used in the following dose. […]

Sequence of Vasopressin V2 Receptor (Q00788 whole entry): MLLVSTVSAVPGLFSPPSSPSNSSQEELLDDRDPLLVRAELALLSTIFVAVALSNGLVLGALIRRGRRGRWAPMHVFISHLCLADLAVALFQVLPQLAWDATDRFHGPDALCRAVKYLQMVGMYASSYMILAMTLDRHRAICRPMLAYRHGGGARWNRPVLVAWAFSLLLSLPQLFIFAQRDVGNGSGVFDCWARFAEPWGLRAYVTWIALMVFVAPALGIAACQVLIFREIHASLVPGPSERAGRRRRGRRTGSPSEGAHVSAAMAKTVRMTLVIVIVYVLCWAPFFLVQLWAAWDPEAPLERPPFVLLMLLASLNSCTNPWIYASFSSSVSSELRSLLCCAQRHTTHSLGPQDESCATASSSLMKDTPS
Sequence of Vasopressin V1 Receptor (P30560 whole entry): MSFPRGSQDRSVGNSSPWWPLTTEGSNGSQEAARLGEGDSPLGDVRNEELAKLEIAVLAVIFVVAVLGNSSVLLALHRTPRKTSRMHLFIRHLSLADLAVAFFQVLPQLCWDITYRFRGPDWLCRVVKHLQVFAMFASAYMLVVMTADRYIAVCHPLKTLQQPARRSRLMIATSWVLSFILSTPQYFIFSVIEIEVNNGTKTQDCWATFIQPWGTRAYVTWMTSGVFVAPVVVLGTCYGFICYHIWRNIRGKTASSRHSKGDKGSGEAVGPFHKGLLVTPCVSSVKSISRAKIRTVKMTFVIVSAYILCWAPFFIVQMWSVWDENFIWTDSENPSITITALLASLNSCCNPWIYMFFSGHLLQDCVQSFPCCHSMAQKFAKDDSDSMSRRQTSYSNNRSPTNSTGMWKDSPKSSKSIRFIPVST

Row | Structure (SMILES) | Amount of Urine Volume (Normal Conscious Rat [1]; 3 mg/kg, i.v.) [ml/kg/0-4 hr.] | Amount of Urine Volume (Normal Conscious Rat [1]; 30 mg/kg, p.o.) [ml/kg/0-4 hr.] | number of death out of 5 or 6 animals (male ICR mice; 150 mg/kg) | number of death out of 5 or 6 animals (male ICR mice; 500 mg/kg) | number of death out of 5 or 6 animals (male ICR mice; 1500 mg/kg) | inhibition at 0.1 µM (Vasopressin V1 Receptor; 1 h, 10^-7 M, inhibition rate at this concentration, read-out: Binding Rate of Vasopressin V1 Receptor) [%] | IC50 (Vasopressin V1 Receptor; [3H] vasopressin V1 antagonist 2 nM, 25° C., 60 minutes, read-out: Affinity for Vasopressin V1 Receptor, IC50) [nM] | inhibition at 0.1 µM (Vasopressin V2 Receptor; 1 h, 10^-7 M, inhibition rate at this concentration, read-out: Binding Rate of Vasopressin V2 Receptor) [%] | IC50 (Vasopressin V2 Receptor; [3H] vasopressin V2 antagonist 2 nM, 25° C., 60 minutes, read-out: Affinity for Vasopressin V2 Receptor, IC50) [nM] | urinary osmotic pressure (Normal Conscious Rat [2]; FIG. 4) | amount of electrolytes excreted in the urine (Normal Conscious Rat [2]; FIGS. 1-3)
1 | O=C(Nc1ccc(C(=O)N2C[C@@H]3CCCN3C(=O)c3ccccc32)cc1)c1ccccc1-c1ccccc1 [Example 25, (11aS)-10-[4-[(2-Phenylbenzoyl) Amino]Benzoyl]-1,2,3,10,11, 11a-Hexahydro-5H-Pyrrolo[2,1-c][1,4]Benzodiazepin-5-One] | 58.5 | 102.7 | 0/6 | 0/6 | 0/6 | 4.1 | > 1000 | 100 | 1.6 | – | –
2 | NS(=O)(=O)c1cc(C(=O)O)c(NCc2ccco2)cc1Cl [Comp. Ex. 3, Furosemide, reference compound] | 27.3 | 59.9 | – | – | – | – | – | – | – | increased approximately in proportion to the increase in the amount of the urine | increased approximately in proportion to the increase in the amount of the urine
